Patent publication US12661410B2, “Compounds for targeted degradation of RET” (C4 Therapeutics, Inc., priority 2020, dated 2026)
Changes are numbered by the printed parent chain. Where two headings read alike, the source gives them in different places.

Experiments:
RET(KD: 658-1114 G810R) = target: T1, RET(KD: 658-1114 G810R) (Homo sapiens, UniProt P07949, G810R); experiment: HiBiT-Degradation, RET G810R degradation assay (Nano-Glo HiBiT Lytic), 293T.165 cells; format: cell-based; conditions: for Emax / DC50: 6.0 hours; for Emax: % remaining protein, read-out: 293T.165 RET(KD: 658-1114 G810R) 6.0 hours (Emax); for DC50: read-out: 293T.165 RET(KD: 658-1114 G810R) 6.0 hours (DC50)
T1 construct: 658-1114; expressed in transfected cells; host or cells: 293T.165 (293T cells, generated in-house)
T1 sequence (P07949 658-1114 G810R): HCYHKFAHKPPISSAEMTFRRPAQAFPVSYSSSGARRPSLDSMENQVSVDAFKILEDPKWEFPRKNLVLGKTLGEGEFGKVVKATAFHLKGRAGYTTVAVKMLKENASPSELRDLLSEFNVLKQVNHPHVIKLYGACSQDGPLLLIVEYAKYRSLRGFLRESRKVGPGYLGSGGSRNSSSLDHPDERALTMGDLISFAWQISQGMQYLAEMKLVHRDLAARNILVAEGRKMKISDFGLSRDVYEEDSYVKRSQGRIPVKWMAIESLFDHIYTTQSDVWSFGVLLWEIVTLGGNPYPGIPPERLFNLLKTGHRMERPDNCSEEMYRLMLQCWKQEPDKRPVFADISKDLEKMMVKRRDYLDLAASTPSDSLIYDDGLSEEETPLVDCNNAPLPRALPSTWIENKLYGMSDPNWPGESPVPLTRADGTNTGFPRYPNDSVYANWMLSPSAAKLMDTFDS
Method in brief: (§1)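 6 h treatment, 293T.144 (WT) / 293T.165 (G810R) cells ectopically expressing HiBiT-fused RET KD; 11-pt half-log dilution, top 10 μM, n=2. Nano-Glo HiBiT lytic detection, luminescence. Output: DC50, Emax (% protein remaining).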

RET (658-1114) = target: T2, RET (658-1114) (Homo sapiens, UniProt P07949); experiment: HiBiT-Degradation, RET wild-type degradation assay (Nano-Glo HiBiT Lytic), 293T.144 cells; format: cell-based; conditions: for DC50 / Emax: 6.0 hours; for DC50: read-out: 293T.144 RET (658-1114) 6.0 hours (DC50); for Emax: read-out: 293T.144 RET (658-1114) 6.0 hours (Emax)
T2 construct: 658-1114; expressed in transfected cells; host or cells: 293T.144 (293T cells, generated in-house)
T2 sequence (P07949 658-1114): T1 sequence (P07949 658-1114 G810R) with R153G
Method in brief: as §1

[1] = half-maximal degradation concentration

Compound | Emax (RET(KD: 658-1114 G810R)) | DC50 (RET(KD: 658-1114 G810R); [1]) | 293T.165 RET(KD: 658-1114 G810R) 6.0 hours (IP) [nM] (RET(KD: 658-1114 G810R)) | 293T.144 RET (658-1114) 6.0 hours (IP) [nM] (RET (658-1114)) | Emax (RET (658-1114); % remaining protein) | DC50 (RET (658-1114); [1]) | 293T.165 RET(KD: 658-1114 G810R) 6.0 hours (Emax) (RET(KD: 658-1114 G810R); HiBiT-Degradation) | 293T.165 RET(KD: 658-1114 G810R) 6.0 hours (IP) [nM] (RET(KD: 658-1114 G810R); HiBiT-Degradation) | DC50 (RET(KD: 658-1114 G810R); HiBiT-Degradation) | 293T.144 RET (658-1114) 6.0 hours (IP) [nM] (RET (658-1114); HiBiT-Degradation) | DC50 (RET (658-1114); HiBiT-Degradation) | Emax (RET (658-1114); HiBiT-Degradation)
N#Cc1cnn2cc(-c3ccc(N4CCN(C(=O)CN5CCC(c6ccc(NC7CCC(=O)NC7=O)cc6)CC5)CC4)cc3)cc(-c3ccc(N4CC5CC(C4)N5Cc4ccccc4)nc3)c12 (stereo not shown) [Compound 22, 4-(6-(6-Benzyl-3,6-diazabicyclo[3.1.1]heptan-3-yl)pyridin-3-yl)-6-(4-(4-(2-(4-(4-((2,6-dioxopiperidin-3-yl)amino)phenyl)piperidin-1-yl)acetyl)piperazin-1-yl)phenyl)pyrazolo[1,5-a]pyridine-3-carbonitrile] | < 30% | < 100 nM | – | – | – | – | ++++ (< 30% = ++++) | ++++ (< 50 nM = ++++) | < 100 nM | ++++ (< 50 nM = ++++) | < 50 nM | < 30%
CC1(c2ncccn2)CCN(c2ccc(-c3nc(-c4cnn(C5CCN(C(=O)CC6(O)CCN(c7ccc(NC8CCC(=O)NC8=O)cc7F)CC6)CC5)c4)cn4ncc(C#N)c34)cn2)CC1 (stereo not shown) [Compound 104, 6-[1-[1-[2-[1-[4-[(2,6-dioxo-3-piperidyl)amino]-2-fluoro-phenyl]-4-hydroxy-4-piperidyl]acetyl]-4-piperidyl]pyrazol-4-yl]-4-[6-(4-methyl-4-pyrimidin-2-yl-1-piperidyl)-3-pyridyl]pyrazolo[1,5-a]pyrazine-3-carbonitrile] | < 30% | < 50 nM | ++++ (<50 nM = ++++) | ++++ (<50 nM = ++++) | < 30% | < 50 nM | – | – | – | – | – | –
CCC1(C(=O)NC(C)C)CCN(c2ccc(-c3nc(-c4cnn([C@H]5CC[C@H](N6CCC(c7ccc(N[C@@H]8CCC(=O)NC8=O)cc7F)CC6)CC5)c4)cn4ncc(C#N)c34)cn2)CC1 (single isomer, unassigned) [Compound 124] | < 30% | < 50 nM | ++++ (<50 nM = ++++) | ++++ (<50 nM = ++++) | < 30% | < 50 nM | – | – | – | – | – | –

Further lines, with some results ahead:

Emax (RET(KD: 658-1114 G810R)) | DC50 (RET(KD: 658-1114 G810R); [1]) | 293T.165 RET(KD: 658-1114 G810R) 6.0 hours (IP) [nM] (RET(KD: 658-1114 G810R)) | 293T.144 RET (658-1114) 6.0 hours (IP) [nM] (RET (658-1114)) | Emax (RET (658-1114); % remaining protein) | DC50 (RET (658-1114); [1]) | Compound | 293T.165 RET(KD: 658-1114 G810R) 6.0 hours (Emax) (RET(KD: 658-1114 G810R); HiBiT-Degradation) | 293T.165 RET(KD: 658-1114 G810R) 6.0 hours (IP) [nM] (RET(KD: 658-1114 G810R); HiBiT-Degradation) | DC50 (RET(KD: 658-1114 G810R); HiBiT-Degradation) | 293T.144 RET (658-1114) 6.0 hours (IP) [nM] (RET (658-1114); HiBiT-Degradation) | DC50 (RET (658-1114); HiBiT-Degradation) | Emax (RET (658-1114); HiBiT-Degradation)
< 30% | < 50 nM | ++++ (<50 nM = ++++) | ++++ (<50 nM = ++++) | < 30% | < 50 nM | CCC1(NC(=O)C(C)C)CCN(c2ccc(-c3nc(-c4cnn([C@H]5CC[C@@H](N6CCN(c7ccc8c(N9CCC(=O)NC9=O)nn(C)c8c7F)CC6)CC5)c4)cn4ncc(C#N)c34)cn2)CC1 (single isomer, unassigned) [Compound 125, N-(1-(5-(3-Cyano-6-(1-((1s, 4s)-4-(4-(3-(2,4-dioxotetrahydropyrimidin-1(2H)-yl)-7-fluoro-1-methyl-1H-indazol-6-yl)piperazin-1-yl)cyclohexyl)-1H-pyrazol-4-yl)pyrazolo[1,5-a]pyrazin-4-yl)pyridin-2-yl)-4-ethylpiperidin-4-yl)isobutyramide] | – | – | – | – | – | –
< 50% | < 100 nM | – | – | – | – | CC(=O)N1CCN(c2ccc(-c3cc(-c4ccc(N5CCN(C(=O)CN6CCC(c7ccc(NC8CCC(=O)NC8=O)cc7)CC6)CC5)cc4)cn4ncc(C#N)c34)cn2)CC1 (stereo not shown) [Compound 41, 4-[6-(4-acetylpiperazin-1-yl)-3-pyridyl]-6-[4-[4-[2-[4-[4-[(2,6-dioxo-3-piperidyl)amino]phenyl]-1-piperidyl]acetyl]piperazin-1-yl]phenyl]pyrazolo[1,5-a]pyridine-3-carbonitrile] | +++ (<50% = +++) | ++++ (< 50 nM = ++++) | < 100 nM | ++++ (< 50 nM = ++++) | < 50 nM | < 30%
